Assay results published in PubChem BioAssay AID248 (DTP/NCI, 2004).
Several values for one entry are separate records, joined by “and”; a condition that tells them apart may be missing. Equal values may be shown once. Toxic doses and inconclusive results are not listed. Rule as the data show it: active = T/C of 150% or more; inactive = T/C below 125%.

Tested on: L1210 leukemia ip in BDF1 mice, survival T/C
Assay: NCI In Vivo Anticancer Drug Screen. Data for tumor model L1210 Leukemia (intraperitoneal) in B6D2F1 (BDF1) mice
Conditions: endpoint: mean survival time, higher = longer survival
Method in brief: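 Ratio derived from survival: compound-dosed mice over vehicle-dosed mice, all bearing a transplantable tumor.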

[1] = dose: 100.0 mg/kg/injection, schedule: Q01DX009 (ip), vehicle: Klucel (hydroxypropylcellulose) (HPC)
[2] = dose: 100.0 mg/kg/injection, schedule: Q04DX003 (ip), vehicle: Klucel (hydroxypropylcellulose) (HPC)
[3] = dose: 200.0 mg/kg/injection, schedule: Q01DX009 (ip), vehicle: Klucel (hydroxypropylcellulose) (HPC)
[4] = dose: 200.0 mg/kg/injection, schedule: Q04DX003 (ip), vehicle: Klucel (hydroxypropylcellulose) (HPC)
[5] = dose: 400.0 mg/kg/injection, schedule: Q01DX009 (ip), vehicle: Klucel (hydroxypropylcellulose) (HPC)
[6] = dose: 100.0 mg/kg/injection, schedule: Q04DX003 (ip), vehicle: saline with Tween-80
[7] = dose: 200.0 mg/kg/injection, schedule: Q04DX003 (ip), vehicle: saline with Tween-80
[8] = dose: 50.0 mg/kg/injection, schedule: Q01DX009 (ip), vehicle: Klucel (hydroxypropylcellulose) (HPC)
[9] = dose: 100.0 mg/kg/injection, schedule: Q01DX001 (ip), vehicle: saline
[10] = dose: 200.0 mg/kg/injection, schedule: Q01DX001 (ip), vehicle: saline
[11] = dose: 400.0 mg/kg/injection, schedule: Q01DX001 (ip), vehicle: saline
[12] = dose: 100.0 mg/kg/injection, schedule: Q04DX002 (ip), vehicle: saline
[13] = dose: 200.0 mg/kg/injection, schedule: Q04DX002 (ip), vehicle: saline
[14] = dose: 100.0 mg/kg/injection, schedule: Q04DX002 (ip), vehicle: Klucel (hydroxypropylcellulose) (HPC)
[15] = dose: 200.0 mg/kg/injection, schedule: Q04DX002 (ip), vehicle: Klucel (hydroxypropylcellulose) (HPC)
[16] = dose: 400.0 mg/kg/injection, schedule: Q04DX002 (ip), vehicle: Klucel (hydroxypropylcellulose) (HPC)
[17] = dose: 12.5 mg/kg/injection, schedule: Q01DX009 (ip), vehicle: Klucel (hydroxypropylcellulose) (HPC)
[18] = dose: 25.0 mg/kg/injection, schedule: Q01DX009 (ip), vehicle: Klucel (hydroxypropylcellulose) (HPC)

Measured: T/C

NC(N)=NN=C1CCCCC1
inactive: dose: 15.0 mg/kg/injection, schedule: Q01DX Z (ip), vehicle: saline 92 % of control | dose: 30.0 mg/kg/injection, schedule: Q01DX Z (ip), vehicle: saline 92 % of control | dose: 60.0 mg/kg/injection, schedule: Q01DX Z (ip), vehicle: saline 102 % of control | dose: 60.0 mg/kg/injection, schedule: Q01DX Z (oral), vehicle: saline 105 % of control | dose: 120.0 mg/kg/injection, schedule: Q01DX Z (ip), vehicle: saline 97 % of control | dose: 120.0 mg/kg/injection, schedule: Q01DX Z (oral), vehicle: saline 108 % of control | dose: 240.0 mg/kg/injection, schedule: Q01DX Z (oral), vehicle: saline 100 % of control | dose: 480.0 mg/kg/injection, schedule: Q01DX Z (oral), vehicle: saline 103 % of control

OCC1(c2ccccc2)CCN(Cc2ccccc2)CC1
inactive: [1] 91 % of control | [2] 104 % of control | [3] 96 % of control | [4] 101 % of control | [5] 91 % of control | dose: 400.0 mg/kg/injection, schedule: Q04DX003 (ip), vehicle: Klucel (hydroxypropylcellulose) (HPC) 97 % of control

Cc1ccc(C(=O)Cl)cc1S(=O)(=O)F
inactive: dose: 25.0 mg/kg/injection, schedule: Q01DX009 (ip), vehicle: saline with Tween-80 95 % of control | dose: 25.0 mg/kg/injection, schedule: Q04DX003 (ip), vehicle: saline with Tween-80 96 % of control | dose: 50.0 mg/kg/injection, schedule: Q01DX009 (ip), vehicle: saline with Tween-80 104 % of control | dose: 50.0 mg/kg/injection, schedule: Q04DX003 (ip), vehicle: saline with Tween-80 100 % of control | [6] 96 % of control | [7] 94 % of control and 102 % of control

ON=C1CCC(=NO)CC1
inactive: dose: 100.0 mg/kg/injection, schedule: Q01DX001 (ip), vehicle: saline with Tween-80 95 % of control | dose: 200.0 mg/kg/injection, schedule: Q01DX001 (ip), vehicle: saline with Tween-80 98 % of control | dose: 400.0 mg/kg/injection, schedule: Q01DX001 (ip), vehicle: saline with Tween-80 103 % of control

Cc1cc(N(CCCl)CCCl)ccc1C=Nc1ccc(C(=O)O)c(O)c1
inactive: dose: 100.0 mg/kg/injection, schedule: Q01DX001 (ip), vehicle: carboxymethylcellulose (CMC) 111 % of control | dose: 200.0 mg/kg/injection, schedule: Q01DX001 (ip), vehicle: carboxymethylcellulose (CMC) 95 % of control

NC(Cc1ccc(Cl)cc1)C(=O)O (stereo not given)
inactive: dose: 50.0 mg/kg/injection, schedule: Q01DX001 (ip), vehicle: water 95 % of control | dose: 100.0 mg/kg/injection, schedule: Q01DX001 (ip), vehicle: water 98 % of control | dose: 200.0 mg/kg/injection, schedule: Q01DX001 (ip), vehicle: water 93 % of control | dose: 400.0 mg/kg/injection, schedule: Q01DX001 (ip), vehicle: water 93 % of control | dose: 800.0 mg/kg/injection, schedule: Q01DX001 (ip), vehicle: water 90 % of control | dose: 1200.0 mg/kg/injection, schedule: Q01DX001 (ip), vehicle: water 96 % of control | dose: 1600.0 mg/kg/injection, schedule: Q01DX001 (ip), vehicle: water 96 % of control | dose: 2000.0 mg/kg/injection, schedule: Q01DX001 (ip), vehicle: water 93 % of control

NC(=O)NC(CC(=O)O)C(=O)O (stereo not given)
inactive: [6] 117 % of control | [7] 101 % of control | dose: 400.0 mg/kg/injection, schedule: Q04DX003 (ip), vehicle: saline with Tween-80 92 % of control

Cc1c(-c2ccccc2)n(O)[n+]([O-])c1-c1ccccc1
inactive: [8] 98 % of control | [1] 94 % of control | [3] 94 % of control

Cc1cn(C2OC(C(O)C(N)=O)C(O)C2O)c(=O)[nH]c1=O (stereo not given)
inactive: [9] 97 % of control | [10] 114 % of control | [11] 101 % of control

CC(Br)C(Br)CO (stereo not given)
inactive: dose: 100.0 mg/kg/injection, schedule: Q01DX009 (ip), vehicle: saline 103 % of control | dose: 200.0 mg/kg/injection, schedule: Q01DX009 (ip), vehicle: saline 102 % of control | dose: 400.0 mg/kg/injection, schedule: Q01DX009 (ip), vehicle: saline 100 % of control

COc1cccc2c(=O)c(C(=O)O)c[nH]c12
inactive: [8] 101 % of control | dose: 50.0 mg/kg/injection, schedule: Q04DX003 (ip), vehicle: Klucel (hydroxypropylcellulose) (HPC) 94 % of control | [1] 106 % of control | [12] 96 % of control | [2] 91 % of control | [3] 107 % of control | [13] 96 % of control | [4] 94 % of control | dose: 400.0 mg/kg/injection, schedule: Q04DX002 (ip), vehicle: saline 100 % of control

O=C(CC(O)(C(F)(F)F)C(F)(F)F)c1cccc(S(=O)(=O)F)c1
inactive: [6] 95 % of control | [7] 100 % of control

COc1cc(NC(=O)Nc2cc([N+](=O)[O-])ccc2C)c(OC)cc1Cl
inactive: [14] 106 % of control | [15] 97 % of control | [16] 95 % of control

OC1(c2ccccc2)c2ccccc2C(O)(c2ccccc2)c2cc3c(cc21)CCCC3 (stereo not given)
inactive: [14] 102 % of control | [15] 91 % of control | [16] 91 % of control

CCCCc1ccc(C2=CC(=O)C(c3ccc(CCCC)cc3)=CC2=O)cc1
inactive: [9] 98 % of control | [10] 95 % of control | [11] 97 % of control

O=C(Nc1ccc2ccccc2c1)c1ccc(Cl)c(Cl)c1
inactive: [1] 95 % of control | [3] 103 % of control | [5] 103 % of control

CN(C)N=Nc1ccc(C(=O)N/N=C/c2ccc(I)cc2)cc1
inactive: dose: 75.0 mg/kg/injection, schedule: Q04DX003 (ip), vehicle: Klucel (hydroxypropylcellulose) (HPC) 101 % of control | dose: 150.0 mg/kg/injection, schedule: Q04DX003 (ip), vehicle: Klucel (hydroxypropylcellulose) (HPC) 97 % of control | dose: 300.0 mg/kg/injection, schedule: Q04DX003 (ip), vehicle: Klucel (hydroxypropylcellulose) (HPC) 89 % of control

CCOC(=O)NN(C(=O)OCC)C1COCCO1 (stereo not given)
inactive: dose: 50.0 mg/kg/injection, schedule: Q04DX002 (ip), vehicle: saline 98 % of control | [12] 103 % of control | [13] 103 % of control

COc1cc2c(cc1OC)C1(C(=O)c3ccc(OC)c(OC)c3C1=O)N(C(C)=O)C=C2 (stereo not given)
inactive: [17] 95 % of control | [18] 103 % of control | [8] 100 % of control

NS(=O)(=O)c1ccc(N=Nc2ncc(CCNC3=CC(=O)C(=O)c4ccccc43)[nH]2)cc1
inactive: [17] 93 % of control | [18] 96 % of control | [8] 96 % of control and 92 % of control
